Data published in patent publication US8217035B2, “Pyrimidine derivatives used as PI-3-kinase inhibitors” (Novartis AG, priority 2006, dated 2012).
Like-named read-outs stand apart in the source and are kept apart here.

How the values were obtained:
[1] = test system: A2780 ovarian cancer cells; assay: Cellular proliferation in A2780 cells, Cell Titer Glo (Biological Method 4); type: cell-based; settings: Homo sapiens
Method: In addition, many of the compounds of Table 1 were tested to determine their inhibitory activity in a cellular proliferation assay according to Biological Method 4.
The ability of the compounds of the invention to inhibit cellular proliferation were determined by using Cell Titer Glo, a commercially available assay from Promega Corporation. A2780 ovarian cancer cells were seeded in TC treated 96-well plates at a density of 1,000 per well in DMEM, 10% FBS, 1% Sodium Pyruvate, and 1% Penicillin Streptomycin for a minimum of 2 hrs prior to addition of compound. For each concentration of test compound, 2 μl (500×) aliquots of compound or 100% DMSO diluted in 500 μl of culture medium for 2× concentration then diluted 1× on the Cells. Cells were incubated for 72 hrs at 37° C., 5% CO2. After the 72 hour incubation, Cell Titer Glo reagent is added to determine number of viable cells remaining after exposure to the compound, and the EC50 value was calculated. The assay was performed according to the manufacturer's instruction (Promega Corporation, Madison, Wis. USA). Each experimental condition was performed in duplicate.

PI3 kinase alpha = PI3 kinase alpha (Homo sapiens, UniProt P42336); assay: PI3K ATP depletion assay (Biological Method 1, Assay 3; KinaseGlo luminescence); type: biochemical; settings: ATP depletion assay, read-out: PI3 Kinase Alpha, IC50
Method in brief: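 Compound in DMSO was mixed with 10 nM PI3 kinase and 5 μg/mL phosphatidylinositol, and the reaction was started with 2 μM ATP. It ran to about 50% ATP depletion and was stopped with KinaseGlo.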

[2] = ovarian cancer cell line A2780, Biological Method 4

Sequence of PI3 kinase alpha (P42336 whole entry): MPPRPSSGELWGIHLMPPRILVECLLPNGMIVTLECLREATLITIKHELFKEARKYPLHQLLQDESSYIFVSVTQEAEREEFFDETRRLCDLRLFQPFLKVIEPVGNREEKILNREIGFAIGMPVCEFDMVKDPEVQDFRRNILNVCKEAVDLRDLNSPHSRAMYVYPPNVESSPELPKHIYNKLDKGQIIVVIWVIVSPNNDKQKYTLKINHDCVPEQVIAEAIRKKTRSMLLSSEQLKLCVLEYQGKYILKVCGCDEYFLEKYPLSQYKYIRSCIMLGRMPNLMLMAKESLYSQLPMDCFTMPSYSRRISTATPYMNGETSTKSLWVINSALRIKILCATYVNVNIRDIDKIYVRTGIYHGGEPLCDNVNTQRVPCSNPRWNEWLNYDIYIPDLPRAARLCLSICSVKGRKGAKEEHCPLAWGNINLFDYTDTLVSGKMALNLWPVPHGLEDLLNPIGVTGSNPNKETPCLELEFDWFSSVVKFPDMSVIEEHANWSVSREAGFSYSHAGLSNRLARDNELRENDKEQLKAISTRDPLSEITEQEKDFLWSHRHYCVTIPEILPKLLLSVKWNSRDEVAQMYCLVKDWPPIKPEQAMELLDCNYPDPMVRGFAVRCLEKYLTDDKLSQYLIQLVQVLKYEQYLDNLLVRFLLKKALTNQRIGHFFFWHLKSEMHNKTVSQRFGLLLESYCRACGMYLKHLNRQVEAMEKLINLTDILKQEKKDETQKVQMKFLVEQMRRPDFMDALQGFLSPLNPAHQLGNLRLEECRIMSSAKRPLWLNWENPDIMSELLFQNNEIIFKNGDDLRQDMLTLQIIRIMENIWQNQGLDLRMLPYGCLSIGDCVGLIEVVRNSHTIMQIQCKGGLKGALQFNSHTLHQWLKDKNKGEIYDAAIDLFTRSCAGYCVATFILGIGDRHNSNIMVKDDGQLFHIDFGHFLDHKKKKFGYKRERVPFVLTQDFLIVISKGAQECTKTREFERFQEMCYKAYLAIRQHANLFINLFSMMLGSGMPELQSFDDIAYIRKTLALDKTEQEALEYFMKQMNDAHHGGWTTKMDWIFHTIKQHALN
Sequence of PI3 kinase alpha (P27986 whole entry partner): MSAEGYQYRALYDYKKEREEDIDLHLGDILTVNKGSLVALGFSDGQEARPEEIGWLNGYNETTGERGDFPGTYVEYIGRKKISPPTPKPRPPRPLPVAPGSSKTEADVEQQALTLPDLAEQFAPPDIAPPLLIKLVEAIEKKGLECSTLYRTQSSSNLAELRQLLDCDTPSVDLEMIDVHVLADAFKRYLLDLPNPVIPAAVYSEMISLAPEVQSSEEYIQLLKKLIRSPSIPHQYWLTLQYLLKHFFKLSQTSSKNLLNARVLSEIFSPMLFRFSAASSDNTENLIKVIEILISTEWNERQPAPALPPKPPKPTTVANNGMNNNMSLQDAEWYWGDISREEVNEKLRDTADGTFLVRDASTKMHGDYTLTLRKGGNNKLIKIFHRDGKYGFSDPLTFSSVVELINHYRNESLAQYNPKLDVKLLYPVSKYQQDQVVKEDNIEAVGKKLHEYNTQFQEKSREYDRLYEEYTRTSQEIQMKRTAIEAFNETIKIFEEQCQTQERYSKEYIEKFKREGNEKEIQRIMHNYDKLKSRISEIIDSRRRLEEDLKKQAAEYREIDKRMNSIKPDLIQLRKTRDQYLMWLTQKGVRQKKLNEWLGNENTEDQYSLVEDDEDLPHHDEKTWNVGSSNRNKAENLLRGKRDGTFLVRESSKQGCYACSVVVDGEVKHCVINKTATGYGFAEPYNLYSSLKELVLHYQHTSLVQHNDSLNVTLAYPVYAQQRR

SMILES | EC50 [1, 2] [nM] | IC50 (PI3 kinase alpha; Biological Method 1) [nM] | EC50 ([1]; ovarian cancer cell line A2780) [nM] | IC50 (PI3 kinase alpha) [nM]
Nc1ccc(-c2cc(Nc3ccnc4c(C(F)(F)F)cccc34)nc(N3CCOCC3)n2)cn1 [Compound 383] | < 10000 | < 1000 | – | –
Nc1cc(-c2cnc(N)nc2)nc(N2CCOCC2)n1 [Compound 301] | < 25000 | < 1000 | – | –
Nc1cc(C(F)(F)F)c(-c2cc(-c3cncc(S(=O)(=O)CCO)c3)nc(N3CCOCC3)n2)cn1 [Compound 265] | < 10000 | < 1000 | – | –
COc1cc2cc(Nc3cc(-c4ccc(N)nc4)nc(N4CCOCC4)n3)cnc2cc1OC [Compound 311] | < 1000 | < 1000 | – | –
Nc1cc(C(F)(F)F)c(-c2cc(N3CCOC(c4ccccc4Cl)C3)nc(N3CCOCC3)n2)cn1 (stereo not shown) [Compound 337] | < 25000 | < 1000 | – | –
N#Cc1cc(-c2cnc(N)nc2)nc(N2CCOCC2)n1 [Compound 237] | < 10000 | < 1000 | – | –
CC(=O)N1CCC(Oc2ccc(Nc3cc(-c4cnc(N)cc4C(F)(F)F)nc(N4CCOCC4)n3)cn2)CC1 [Compound 262] | < 10000 | < 1000 | – | –
Nc1ccc(-c2cc(Sc3ccncc3)nc(N3CCOCC3)n2)cn1 [Compound 294] | < 10000 | < 1000 | – | –
Nc1ncc(-c2cc(-c3ccc(F)nc3)nc(N3CCOCC3)n2)cn1 [Compound 278] | < 10000 | < 1000 | – | –
Nc1cc(C(F)(F)F)c(-c2cc(N3CCS(=O)(=O)CC3)nc(N3CCOCC3)n2)cn1 [Compound 331] | < 25000 | < 1000 | – | –
CC(C)NC(=O)C1CN(c2cc(-c3cnc(N)cc3C(F)(F)F)nc(N3CCOCC3)n2)CCO1 (stereo not shown) [Compound 330] | < 25000 | < 1000 | – | –
Nc1cc(C(F)(F)F)c(-c2cc(Nc3ccc(OC4CCOC4)nc3)nc(N3CCOCC3)n2)cn1 (stereo not shown) [Compound 268] | < 10000 | < 1000 | – | –
Nc1ccc(-c2cc(N3CCOC(c4ccccc4)C3)nc(N3CCOCC3)n2)cn1 (stereo not shown) [Compound 371] | < 10000 | < 1000 | – | –
CC(=O)N1CCC(Oc2ccc(Nc3cc(-c4cnc(N)nc4N)nc(N4CCOCC4)n3)cn2)CC1 [Compound 261] | < 10000 | < 1000 | – | –
Nc1ccc(-c2cc(-c3ccncc3)nc(N3CCOCC3)n2)cn1 [Compound 246] | < 10000 | < 1000 | – | –
Nc1cc(Cl)c(-c2cc(N3CCOC(c4ccccc4)C3)nc(N3CCOCC3)n2)cn1 (stereo not shown) [Compound 342] | < 10000 | < 1000 | – | –
Nc1ncc(-c2cc(NC3CCOCC3)nc(N3CCOCC3)n2)c(C(F)(F)F)n1 [Compound 321] | < 10000 | < 1000 | – | –
Nc1cc(C(F)(F)F)c(-c2cc(N3CCN(c4ccccc4)C3=O)nc(N3CCOCC3)n2)cn1 [Compound 18] | – | – | < 1000 | < 1000
COCCNc1cc(-c2cnc(N)nc2)nc(N2CCOCC2)n1 [Compound 14] | – | – | < 1000 | < 1000
CC(=O)Nc1ccc(Nc2cc(-c3ccc(N)nc3)nc(N3CCOCC3)n2)cc1 [Compound 360] | < 10000 | < 1000 | – | –
CN(C)CCOc1ccc(Nc2cc(-c3cnc(N)cc3C(F)(F)F)nc(N3CCOCC3)n2)cn1 [Compound 269] | < 10000 | < 1000 | – | –

SMILES | EC50 [1, 2] [nM] | IC50 (PI3 kinase alpha; Biological Method 1) [nM] | EC50 ([1]; ovarian cancer cell line A2780) [nM] | IC50 (PI3 kinase alpha) [nM]
CC(=O)c1cccc(-c2cc(-c3ccc(N)nc3)nc(N3CCOCC3)n2)c1 [Compound 252] | < 10000 | < 1000 | – | –
CC(=O)N1CCc2ccc(Nc3cc(-c4ccc(N)nc4)nc(N4CCOCC4)n3)cc21 [Compound 356] | < 10000 | < 1000 | – | –
Nc1ccc(-c2cc(Nc3cccc4[nH]ncc34)nc(N3CCOCC3)n2)cn1 [Compound 347] | < 10000 | < 1000 | – | –
CC(=O)Nc1ccccc1-c1cc(-c2ccc(N)nc2)nc(N2CCOCC2)n1 [Compound 253] | < 10000 | < 1000 | – | –
CS(=O)(=O)c1cccc(Nc2cc(-c3cnc(N)cc3C(F)(F)F)nc(N3CCOCC3)n2)c1 [Compound 238] | < 10000 | < 1000 | – | –
Nc1cc(C(F)(F)F)c(-c2cc(-c3cncc(CN4CCCC4)c3)nc(N3CCOCC3)n2)cn1 [Compound 264] | < 10000 | < 1000 | – | –
Nc1cc(C(F)(F)F)c(-c2cc(Nc3cc(Cl)ccn3)nc(N3CCOCC3)n2)cn1 [Compound 241] | < 10000 | < 1000 | – | –
NC(=O)C1CN(c2cc(-c3cnc(N)cc3C(F)(F)F)nc(N3CCOCC3)n2)CCO1 (stereo not shown) [Compound 320] | < 10000 | < 1000 | – | –
Nc1ncc(-c2cc(NC(=O)Cc3cccnc3)nc(N3CCOCC3)n2)cn1 [Compound 291] | < 25000 | < 1000 | – | –
Nc1ncc(-c2cc(-c3cncc(O)c3)nc(N3CCOCC3)n2)cn1 [Compound 274] | < 1000 | < 1000 | – | –
Nc1ncc(-c2cc(N3CCOC(c4ccccc4)C3)nc(N3CCOCC3)n2)c(C(F)(F)F)n1 (stereo not shown) [Compound 343] | < 25000 | < 1000 | – | –
CC(=O)c1ccccc1-c1cc(-c2ccc(N)nc2)nc(N2CCOCC2)n1 [Compound 255] | < 25000 | < 1000 | – | –
Nc1cc(Cl)c(-c2cc(OC3CCOCC3)nc(N3CCOCC3)n2)cn1 [Compound 328] | < 25000 | < 1000 | – | –
Nc1ccc(-c2nc(N3CCOCC3)ncc2N)cn1 [Compound 259] | < 25000 | < 10000 | – | –
Nc1cc(C(F)(F)F)c(-c2cc(N3CCOC(c4ccc(Cl)cc4)C3)nc(N3CCOCC3)n2)cn1 (stereo not shown) [Compound 336] | < 10000 | < 1000 | – | –
Nc1ncc(-c2cc(N[C@@H]3CN4CCC3CC4)nc(N3CCOCC3)n2)cn1 [Compound 520] | – | – | < 10000 | < 1000
Nc1ccc(-c2cc(N3CCOc4ccccc43)nc(N3CCOCC3)n2)cn1 [Compound 387] | < 10000 | < 1000 | – | –
CS(=O)(=O)Nc1ncccc1-c1cc(-c2cnc(N)nc2N)nc(N2CCOCC2)n1 [Compound 260] | < 10000 | < 1000 | – | –
CC(=O)Nc1cccc(Nc2cc(-c3ccc(N)nc3)nc(N3CCOCC3)n2)c1 [Compound 363] | < 10000 | < 1000 | – | –
NC(=O)c1ccccc1Nc1cc(-c2ccc(N)nc2)nc(N2CCOCC2)n1 [Compound 352] | < 10000 | < 1000 | – | –

Results, then the compound that gave them:

EC50 [1, 2] [nM] | IC50 (PI3 kinase alpha; Biological Method 1) [nM] | EC50 ([1]; ovarian cancer cell line A2780) [nM] | IC50 (PI3 kinase alpha) [nM] | SMILES
– | – | < 10000 | < 1000 | Nc1ncc(-c2cc(N3CCOc4ccccc43)nc(N3CCOCC3)n2)c(C(F)(F)F)n1 [Compound 546]
– | – | < 10000 | < 1000 | Nc1ccc(-c2cc(Oc3cccnc3)nc(N3CCOCC3)n2)cn1 [Compound 512]
– | – | < 25000 | < 1000 | Nc1cc(C(F)(F)F)c(-c2cc(Cl)nc(N3CCOCC3)n2)cn1 [Compound 467]
– | – | < 10000 | < 1000 | Nc1ncc(-c2cc(Nc3ccc4[nH]ncc4c3)nc(N3CCOCC3)n2)cn1 [Compound 522]
– | – | < 10000 | < 1000 | CC(C)(C)OC(=O)N1CCC(Oc2cc(-c3cnc(N)cc3C(F)(F)F)nc(N3CCOCC3)n2)CC1 [Compound 456]
– | – | < 10000 | < 1000 | CN(c1cc(-c2cnc(N)nc2)nc(N2CCOCC2)n1)C1CCCCC1 [Compound 404]
– | – | < 10000 | < 1000 | Nc1ccc(-c2cc(Nc3cccc(F)c3)nc(N3CCOCC3)n2)cn1 [Compound 439]
– | – | < 10000 | < 1000 | Nc1ncc(-c2cc(C(F)(F)F)nc(N3CCOCC3)n2)cn1 [Compound 472]
– | – | < 25000 | < 1000 | N#Cc1cnc(N2CCOCC2)nc1-c1cnc(N)nc1 [Compound 418]
– | – | < 10000 | < 1000 | CC(C)N1CCN(c2ccc(Nc3cc(-c4cnc(N)cc4C(F)(F)F)nc(N4CCOCC4)n3)cn2)CC1 [Compound 488]
– | – | < 10000 | < 1000 | Nc1ncc(-c2cc(OCCCN3CCOCC3)nc(N3CCOCC3)n2)cn1 [Compound 511]
– | – | < 10000 | < 1000 | COc1ccc(Nc2nc(N3CCOCC3)nc(-c3cnc(N)nc3)c2C)cn1 [Compound 480]
– | – | < 25000 | < 1000 | CNc1cc(-c2cnc(N)nc2)nc(N2CCOCC2)n1 [Compound 401]
– | – | < 10000 | < 1000 | Nc1ncc(-c2cc(Nc3ccnc4ccc(C(F)(F)F)cc34)nc(N3CCOCC3)n2)cn1 [Compound 410]
– | – | < 10000 | < 1000 | CC(C)OC(=O)N1CC[C@H](Oc2cc(-c3cnc(N)cc3C(F)(F)F)nc(N3CCOCC3)n2)C1 [Compound 534]
– | – | < 1000 | < 1000 | Nc1ncc(-c2cc(Nc3ccnc4cc(C(F)(F)F)ccc34)nc(N3CCOCC3)n2)cn1 [Compound 409]
– | – | < 10000 | < 1000 | CC(C)OC(=O)N1CCC[C@@H](Oc2cc(-c3cnc(N)nc3N)nc(N3CCOCC3)n2)C1 [Compound 527]
< 10000 | < 1000 | – | – | Nc1ncc(-c2cc(Nc3cnccc3C(F)(F)F)nc(N3CCOCC3)n2)cn1 [Compound 390]
– | – | < 25000 | < 1000 | Nc1cc(C(F)(F)F)c(-c2ccnc(N3CCOCC3)n2)cn1 [Compound 466]
– | – | < 1000 | < 1000 | Nc1ncc(-c2cc(-c3cccnc3)nc(N3CCOCC3)n2)cn1 [Compound 518]
– | – | < 25000 | < 1000 | Nc1ncc(-c2cc(Cl)nc(N3CCOCC3)n2)c(N)n1 [Compound 464]
